From US9493434B2, “Substituted indenes as medicaments” (LABORATORIOS DEL DR. ESTEVE S.A., priority 2012, dated 2016)
Where a name gives a salt, the structure may show the parent alone.

Target: T1, σ1-receptor (Cavia porcellus, UniProt Q60492)
T1 construct: Guinea pig brains were homogenized in 10 vols; (w/v) of Tris-HCl 50 mM 0.32 M sucrose, pH 7.4; from tissue; host or cells: guinea pig brain membranes
Experiment: σ1-receptor binding assay, [3H]-(+)-pentazocine, guinea pig brain membranes
Conditions: radioligand [3H]-(+)-pentazocine 5.0 nM, 150 min at 37° C., nonspecific binding with 1 μM haloperidol
Method: Brain membrane preparation and binding assays for the σ1-receptor were performed as described (DeHaven-Hudkins, D. L., L. C. Fleissner, and F. Y. Ford-Rice, 1992, Characterization of the binding of [^3H](+)pentazocine to […] recognition sites in guinea pig brain, Eur. J. Pharmacol. 227, 371-378) with some modifications. Guinea pig brains were homogenized in 10 vols. (w/v) of Tris-HCl 50 mM 0.32 M sucrose, pH 7.4, with a Kinematica Polytron PT 3000 at 15000 r.p.m. for 30 s. The homogenate was centrifuged at 1000 g for 10 min at 4° C. and the supernatants collected and centrifuged again at 48000 g for 15 min at 4° C. The pellet was resuspended in 10 volumes of Tris-HCl buffer (50 mM, pH 7.4), incubated at 37° C. for 30 min, and centrifuged at 48000 g for 20 min at 4° C. Following this, the pellet was re-suspended in fresh Tris-HCl buffer (50 mM, pH 7.4) and stored on ice until use.
The radioligand used was [^3H]-(+)-pentazocine at 5.0 nM and the final volume was 200 μl. The incubation was initiated with the addition of 100 μl of membrane at a final tissue concentration of approximately 5 mg tissue net weight/mL and the incubation time was 150 m. at 37° C. After incubation, the membranes were collected onto pretreated glass fiber filterplate (MultiScreen-FC, Millipore), with polyethylenimine 0.1%. The filters were washed two times with 200 μl of washing buffer (50 mM Tris CI, pH=7.4) and then 25 μl of Ecoscint H liquid scintillation cocktail were added. Microplates were allowed to set for several hours and then quantified by liquid scintillation spectrophotometry (1450 Microbeta, Wallac). Nonspecific binding was determined with 1 μM haloperidol.

T1 sequence (Q60492 whole entry): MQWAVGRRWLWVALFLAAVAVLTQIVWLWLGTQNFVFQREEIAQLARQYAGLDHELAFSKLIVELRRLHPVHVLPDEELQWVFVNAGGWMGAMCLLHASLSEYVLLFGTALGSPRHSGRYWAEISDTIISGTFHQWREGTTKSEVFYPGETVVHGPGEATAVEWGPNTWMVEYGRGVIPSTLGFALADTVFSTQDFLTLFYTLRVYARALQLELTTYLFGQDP

Ki	Structure (SMILES)
143 nM	CN1CCN(CCC2=CCc3cc(-c4ccncc4)ccc32)CC1 [Compound 40, 1-methyl-4-(2-(6-pyridin-4-yl)-1H-inden-3-yl)ethyl)piperazine maleate]
14 nM	CN1CCN(CCC2=CCc3c2cccc3-c2cccc(F)c2)CC1 [Compound 17, 1-(2-(7-(3-fluorophenyl)-1H-inden-3-yl)ethyl)-4-methylpiperazine maleate]
13 nM	CN1CCN(CCC2=CCc3c2cccc3-c2ccccc2)CC1 [Compound 5, 1-methyl-4-(2-(7-phenyl-1H-inden-3-yl)ethyl)piperazine maleate]
13 nM	C1=C(CCN2CCC(c3ccccc3)CC2)c2cccc(-c3ccccc3)c2C1 [Compound 10, 4-phenyl-1-(2-(7-phenyl-1H-inden-3-yl)ethyl)piperidine maleate]
7 nM	C1=C(CCN2CCCCCC2)c2cccc(-c3ccccc3)c2C1 [Compound 9, 1-(2-(7-phenyl-1H-inden-3-yl)ethyl)azepane maleate]
31 nM	C1=C(CCN2CCN(c3ccccc3)CC2)c2cccc(-c3ccccc3)c2C1 [Compound 6, 1-phenyl-4-(2-(7-phenyl-1H-inden-3-yl)ethyl)piperazine maleate]
37 nM	COc1ccc(-c2cccc3c2CC=C3CCN2CCN(C)CC2)cn1 [Compound 36, 1-(2-(7-(6-methoxypyridin-3-yl)-1H-inden-3-yl)ethyl)-4-methylpiperazine maleate]
12 nM	Clc1ccc(-c2cccc3c2CC=C3CCN2CCOCC2)cc1Cl [Compound 19, 4-(2-(7-(3,4-dichlorophenyl)-1H-inden-3-yl)ethyl)morpholine maleate]
26 nM	CN1CCN(CCC2=CCc3c2cccc3-c2ccncc2)CC1 [Compound 30, 1-methyl-4-(2-(7-(pyridin-4-yl)-1H-inden-3-yl)ethyl)piperazine maleate]
12 nM	CN1CCN(CCC2=CCc3c2cccc3-c2ccc(F)cc2)CC1 [Compound 16, 1-(2-(7-(4-fluorophenyl)-1H-inden-3-yl)ethyl)-4-methylpiperazine maleate]
185 nM	CN1CCN(CCC2=CCc3c2cccc3-n2ccnn2)CC1 [Compound 27, 1-(2-(7-(1H-1,2,3-triazol-1-yl)-1H-inden-3-yl)ethyl)-4-methylpiperazine maleate]
47 nM	C1=C(CCN2CCOCC2)c2cccc(-c3ccncc3)c2C1 [Compound 3, 4-(2-(7-(pyridin-4-yl)-1H-inden-3-yl)ethyl)morpholine maleate]
7 nM	CN1CCN(CCC2=CCc3c2cccc3-c2ccsc2)CC1 [Compound 26, 1-methyl-4-(2-(7-(thiophen-3-yl)-1H-inden-3-yl)ethyl)piperazine maleate]
36 nM	Cc1noc(C)c1-c1cccc2c1CC=C2CCN1CCN(C)CC1 [Compound 28, 3,5-dimethyl-4-(3-(2-(4-methylpiperazin-1-yl)ethyl)-1H-inden-7-yl)isoxazole maleate]
129 nM	COc1ccc(-c2cccc3c2CC=C3CCN2CCN(C)CC2)cc1 [Compound 22, 1-(2-(7-(4-methoxyphenyl)-1H-inden-3-yl)ethyl)-4-methylpiperazine maleate]
7 nM	C1=C(CCN2CCCCC2)c2cccc(-c3ccccc3)c2C1 [Compound 8, 1-(2-(7-phenyl-1H-inden-3-yl)ethyl)piperidine maleate]
29 nM	CN1CCN(CCC2=CCc3c2cccc3-c2ccnc(F)c2)CC1 [Compound 33, 1-(2-(7-(2-fluoropyridin-4-yl)-1H-inden-3-yl)ethyl)-4-methylpiperazine maleate]
24 nM	CN1CCN(CCC2=CCc3c2cccc3-c2ccncc2F)CC1 [Compound 4, 1-(2-(7-(3-fluoropyridin-4-yl)-1H-inden-3-yl)ethyl)-4-methylpiperazine maleate]

Ki	Structure (SMILES)
29 nM	CN1CCCN(CCC2=CCc3c2cccc3-c2ccncc2)CC1 [Compound 31, 1-methyl-4-(2-(7-(pyridin-4-yl)-1H-inden-3-yl)ethyl)-1,4-diazepane maleate]
24 nM	Fc1ccc(-c2cccc3c2CC=C3CCN2CCN(c3ccccc3)CC2)cc1 [Compound 14, 1-(2-(7-(4-fluorophenyl)-1H-inden-3-yl)ethyl)-4-phenylpiperazine maleate]
51 nM	CC1=C(CCN2CCN(C)CC2)c2cccc(-c3ccccc3)c2C1 [Compound 12, 1-methyl-4-(2-(2-methyl-7-phenyl-1H-inden-3-yl)ethyl)piperazine maleate]
8 nM	Fc1ccc(-c2cccc3c2CC=C3CCN2CCCCC2)cc1 [Compound 15, 1-(2-(7-(4-fluorophenyl)-1H-inden-3-yl)ethyl)piperidine maleate]
53 nM	COc1ccc(-c2cccc3c2CC=C3CCN2CCOCC2)cc1 [Compound 21, 4-(2-(7-(4-methoxyphenyl)-1H-inden-3-yl)ethyl)morpholine maleate]
6 nM	C1=C(CCN2CCOCC2)c2cccc(-c3ccsc3)c2C1 [Compound 25, 4-(2-(7-(thiophen-3-yl)-1H-inden-3-yl)ethyl)morpholine maleate]
180 nM	COc1ccc(-c2cccc3c2CC=C3CCN2CCOCC2)cn1 [Compound 39, 4-(2-(7-(6-methoxypyridin-3-yl)-1H-inden-3-yl)ethyl)morpholine maleate]
63 nM	Clc1cccc(N2CCN(CCC3=CCc4c3cccc4-c3ccccc3)CC2)c1 [Compound 7, 1-(3-chlorophenyl)-4-(2-(7-phenyl-1H-inden-3-yl)ethyl)piperazine maleate]
12 nM	Fc1ccc(-c2cccc3c2CC=C3CCN2CCCCCC2)cc1 [Compound 2, 1-(2-(7-(4-fluorophenyl)-1H-inden-3-yl)ethyl)azepane hydrochloride]
168 nM	CN1CCN(CCC2=CCc3c2cccc3-c2cncnc2)CC1 [Compound 29, 5-(3-(2-(4-methylpiperazin-1-yl)ethyl)-1H-inden-7-yl)pyrimidine maleate]
82 nM	C1=C(CCN2CCOCC2)c2cccc(-c3cccnc3)c2C1 [Compound 34, 4-(2-(7-(pyridin-3-yl)-1H-inden-3-yl)ethyl)morpholine maleate]
120 nM	CN1CCN(CCC2=CCc3cc(-c4ccnc(F)c4)ccc32)CC1 [Compound 41, 1-(2-(6-(2-fluoropyridin-4-yl)-1H-inden-3-yl)ethyl)-4-methylpiperazine maleate]
4 nM	Fc1cccc(-c2cccc3c2CC=C3CCN2CCOCC2)c1 [Compound 18, 4-(2-(7-(3-fluorophenyl)-1H-inden-3-yl)ethyl)morpholine maleate]
61 nM	CN1CCN(CCC2=CCc3c2cccc3-c2cccnc2)CC1 [Compound 35, 1-methyl-4-(2-(7-(pyridin-3-yl)-1H-inden-3-yl)ethyl)piperazine maleate]
25 nM	CN1CCN(CCC2=CCc3c2cccc3-c2ccc(Cl)c(Cl)c2)CC1 [Compound 20, 1-(2-(7-(3,4-dichlorophenyl)-1H-inden-3-yl)ethyl)-4-methylpiperazine maleate]
34 nM	CN1CCN(CCC2=CCc3c2cccc3-c2ccc(F)nc2)CC1 [Compound 37, 1-(2-(7-(6-fluoropyridin-3-yl)-1H-inden-3-yl)ethyl)-4-methylpiperazine maleate]
30 nM	CN1CCN(CCC2=CCc3c2cccc3-c2ccnn2C)CC1 [Compound 38, 1-methyl-4-(2-(7-(1-methyl-1H-pyrazol-5-yl)-1H-inden-3-yl)ethyl)piperazine maleate]

Structure (SMILES)	Ki
C1=C(CCN2CCOCC2)c2cccc(-c3ccccc3)c2C1 [Compound 1, 4-(2-(7-phenyl-1H-inden-3-yl)ethyl)morpholine maleate]	3 nM
CC1=C(CCN2CCOCC2)c2cccc(-c3ccccc3)c2C1 [Compound 11, 4-(2-(2-methyl-7-phenyl-1H-inden-3-yl)ethyl)morpholine maleate]	28 nM
Fc1ccc(-c2cccc3c2CC=C3CCN2CCOCC2)cc1 [Compound 13, 4-(2-(7-(4-fluorophenyl)-1H-inden-3-yl)ethyl)morpholine maleate]	4 nM
